Data set [1] is described as follows: Reduction of body temperature in mice (Irwin technique). As to conditions: p.o.
The subject of data set [2] is spontaneous activity in mice. The data set can be described thus: Reduction of spontaneous activity in mice (Irwin technique). The settings on record: p.o.
For the next data set, the system named is catalepsy in rats. The experiment in a line: Catalepsy induction in rats. The data set is classed as in vivo. As to conditions: rat, p.o.
In data set [3] the test system is neuromuscular coordination in the rat. The data set can be described thus: Rotarod test (neuromuscular coordination in the rat). The settings on record: p.o. The data set is classed as in vivo. (In the rotarod test animals must keep their balance on a rotating rod.)
Data set [4] relates to apomorphine-induced climbing behaviour in mice. The experiment in a line: Apomorphine antagonism in mice (apomorphine-induced climbing behaviour, Protais et al.). The class given is in vivo. As to conditions: Mus musculus, po.
Data set [5] has as its system conditioned Avoidance Response in the rat. The data set can be described thus: C.A.R. test (interference with conditioned Avoidance Response in the rat). The data set is classed as in vivo. The settings on record: p.o.
The nature of data set [6]: LD50 / acute toxicity in mice. As to conditions: mouse, in vivo, po, approximate LD50.
In data set [7] the test system is rats with 6-OHDA induced unilateral lesions of the dopaminergic nigrostriatal pathway. The data set can be described thus: Turning-behaviour (antagonism to rotational behaviour by dopaminergic agents in rats with 6-OHDA induced unilateral lesions). The data set is classed as in vivo. As to conditions: rat, p.o.
For data set [8] the following is noted: mouse, in vivo, po.
Data set [9] concerns spontaneous activity in mice. The settings on record: mouse, in vivo, po.

The structures appear in SMILES notation. Read-outs that look alike come from different tables or passages of the source.

For orientation: ED50 means the midpoint of the dose-response relation. A low value points to greater potency. As usually defined, the LD50 is the dose at which mortality reaches 50%. A low value points to a more toxic substance.

For `O=C1Nc2ccc(Br)cc2C2(CCN(CCCC(=O)c3ccc(F)cc3)CC2)O1` [Example 1, 1'-[3-(4-Fluorobenzoyl)propyl]spiro-(3,1-benzoxazine-6-bromo-4(2H)4'-piperidin)-2-one], the “Reduction of body temperature in mice (min. active dose)” value (“Reduction of body temperature in mice” for short) in data set [1] is 100 mg/kg p.o. For the same molecule, in [2], the “Reduction of spontaneous activity in mice (min. active dose)” value (“Reduction of spontaneous activity” below) was 12.5 mg/kg p.o. Also, the “Min. active dose in Catalepsy induction” value in the data set with catalepsy in rats is given as above 200 mg/kg p.o. In addition, in data set [3], the “Min. active dose in Rotarod test” value is above 50 mg/kg p.o. This molecule yielded an ED50 in data set [4] of 1.7 mg/kg. For the same molecule, the “Min. active dose in C.A.R. test” value in data set [5] is 25 mg/kg p.o. In [6], this molecule yielded an LD50 above 800 mg/kg. In addition, in [7], the “Min. active dose in Turning-behaviour” value was above 20 mg/kg p.o.
`O=C1Nc2ccc([N+](=O)[O-])cc2C2(CCN(CCCC(=O)c3ccc(F)cc3)CC2)O1` [Example 3, 1'-[3-(4-fluorobenzoyl)propyl]spiro-(3,1-benzoxazine-6-nitro-4(2H)4'-piperidin)-2-one]: the “Reduction of body temperature in mice” value in data set [1] was determined as 110 mg/kg p.o. Besides, the “Reduction of spontaneous activity” value in [2] worked out at 15 mg/kg p.o. For the same molecule, the “Min. active dose in Catalepsy induction” value in the data set with catalepsy in rats was 200 mg/kg p.o. For the same molecule, in [3], the “Min. active dose in Rotarod test” value is 50 mg/kg p.o. In data set [4], this molecule gave an ED50 of 2.7 mg/kg. The “Min. active dose in C.A.R. test” value in data set [5] came out at 20 mg/kg p.o. Moreover, the 50% lethal dose (LD50) in data set [6] is above 800 mg/kg. For the same molecule, the “Min. active dose in Turning-behaviour” value in data set [7] is recorded as above 15 mg/kg p.o.
With `O=C(CCCN1CCC(O)(c2ccc(Cl)cc2)CC1)c1ccc(F)cc1` [Haloperidol, haloperidol, reference compound], the “Reduction of body temperature in mice” value in [8] is listed as 3.12 mg/kg p.o. Moreover, in data set [9], the “Reduction of spontaneous activity” value is listed as 0.78 mg/kg p.o. Further, the “Min. active dose in Catalepsy induction” value with catalepsy in rats worked out at 0.5 mg/kg p.o. In [3], the “Min. active dose in Rotarod test” value amounted to 0.5 mg/kg p.o. Besides, it took a dose of 0.2 mg/kg to reach the 50% effect level in [4] (ED50). In [5], the “Min. active dose in C.A.R. test” value was 0.5 mg/kg p.o. Besides, the median lethal dose (LD50) in [6] was around 75 mg/kg. The “Min. active dose in Turning-behaviour” value in [7] is 0.5 mg/kg p.o.

(Values after patent publication US4558049A, “Antipsycotic benzoxazines” (Farmitalia Carlo Erba S.p.A., priority 1982, dated 1985).)
